Drawing on patent publication US20060276445A1, “Bicyclic 6-alkylidene-penems as class-D beta-lactamases inhibitors” (priority 2005, published 2006), this text covers MIC50 for one molecule.

This assay relates to E. coli GC 2883 (OXA-10 + PSE-2). As to the kind of experiment: Antimicrobial susceptibility testing, microbroth dilution (NCCLS), piperacillin combined with β-lactamase inhibitor. In kind it is cell-based. To be noted: Escherichia coli; piperacillin as control, without inhibitor.

For the molecule `CCN1CCN(C(=O)N[C@@H](C(=O)N[C@@H]2C(=O)N3[C@@H]2SC(C)(C)[C@@H]3C(=O)O)c2ccccc2)C(=O)C1=O` [piperacillin], the MIC50 is greater than 64 µg/mL.
